A short description of the data set: gradient 5% acetonitrile 3 min, to 50% in 2 min, to 85% in 15 min, held 3 min, 100 µL/min. Particulars: column: Zorbax Extend-C18 2.1 x 50 mm; eluents: water / acetonitrile, 0.1% formic acid. In short, it runs like this:
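A Zorbax Extend-C18 column (2.1 × 50 mm, 1.8 μm) run at 100 μL/min with water and acetonitrile, both containing 0.1% formic acid, separated mixtures of ~100 pure standards. The HPLC was coupled to a quadrupole time-of-flight mass spectrometer operated in positive and negative ionization mode, with dead and dwell volumes of 40 μL and 900 μL. Each retention time was taken from a computationally picked adduct peak that was then manually inspected.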
The molecule `Cc1ccc(C(=O)Nc2ccc(CN3CCN(C)CC3)c(C(F)(F)F)c2)cc1C#Cc1cnc2cccnn12` showed an RP-LC retention time of 812 s.
Molecule `Cc1ccc(C)c(N2CCN(c3ccnc(SCC(=O)Nc4c(C)cccc4Cl)n3)CC2)c1` showed an RP-LC retention time of 942 s.
The molecule `Cc1noc(C)c1CCC(=O)N1CCN(c2c(C)nn(C3CCS(=O)(=O)C3)c2C)CC1` (stereo not given) had an RP-LC retention time of 650 s.
As to `CN1C(=O)Cc2ccccc2C1C(=O)NCc1ccc(Cl)cc1` (stereo not given), the RP-LC retention time came to 762 s.
To `CN1c2cc(Cl)ccc2C(=O)NC12CCN(C(=O)Nc1ccc3c(c1)OCCO3)CC2` belongs 781 s; to `Cn1cc(CN2CCC(C(=O)NC3CCN(Cc4ccccc4)CC3)CC2)c2cc(Cl)ccc21`, 593 s.
As to `CC(C)(C)CC(=O)N1CCC(Oc2nccnc2N2CCc3ccccc32)C1` (stereo not given), the RP-LC retention time stood at 1060 s.
The figure for `O=C(O)c1cc(-c2ccncc2)nc2ccccc12` is 572 s; for `CNC(=O)Cn1nc(C2CCN(C(=O)c3ccc(F)cc3)CC2)c2c1CCOC2` it is 614 s; for `CSc1cccc(NC(=O)C2CC(=O)N(c3ccc4c(c3)CCN4C(C)=O)C2)c1` (stereo not given) it is 730 s.
The molecule `O=C1CC(c2nc(-c3cccnc3)no2)CN1c1ccc2c(c1)OCO2` (stereo not given) returned an RP-LC retention time of 728 s.
Consider `CCc1nn2c(CNS(=O)(=O)c3cccc(Cl)c3)c(-c3ccccc3)nc2s1`, for which the RP-LC retention time turned out to be 971 s.
To `CC(C)c1cc(C2NNC(=O)N2c2ccc3c(ccn3C)c2)c(O)cc1O` (stereo not given) belongs 796 s; to `Cn1nccc1C(=O)Nc1ccsc1-c1nc(-c2ccc(F)cc2)no1`, 1260 s; to `Fc1cccc(Cc2noc(-c3nc(-c4ccccc4F)no3)n2)c1`, 1130 s.
The figure for `COc1ccc(C2(C(=O)N3CCc4nn(CC5CC5)c(=O)n4CC3)CC2)cc1` is 709 s; for `O=C(NCc1ccccc1C(F)(F)F)C1CCCN(c2ncnc3c2oc2ccccc23)C1` (stereo not given) it is 861 s.
The figure for `O=C1CS(=O)C2(CCN(S(=O)(=O)Cc3ccccc3)CC2)N1CC1CC1` (stereo not given) is 713 s; for `CCCn1cc(CCNC(=O)c2ccccc2Br)c2cccnc21` it is 748 s; for `COc1ccc2c(c1)C1(CCN(C(=O)NC3CCCCC3)C1)C(=O)N2C` (stereo not given) it is 778 s.
The molecule `CC1(C)CC(=O)C2=C(C1)N(CC1CCCO1)C(=O)C2(NC(=O)c1cccnc1)C(F)(F)F` (stereo not given) had an RP-LC retention time of 719 s.
To `CC(=O)Nc1ccc(S(=O)(=O)N2CCN(c3cc(C)c4ccccc4n3)CC2)cc1` belongs 632 s.
With `Cc1ccc2c(c1)C(=O)NC1(CCN(C(=O)NC3CCCCC3)CC1)N2C`, the RP-LC retention time came out at 763 s.
`CC(C)(C)C(=O)N1CCC(C(=O)NCc2ccc3c(c2)OCO3)CC1` had an RP-LC retention time of 712 s.
Regarding `Cn1ncc(N2CCC(C(=O)N3CCN(C(=O)C4COc5ccccc5O4)CC3)CC2)cc1=O` (stereo not given), the RP-LC retention time worked out at 659 s.
The figure for `COc1ccccc1-c1nc2cnccn2c1NCCC(=O)NC1CCCC1` is 618 s; for `CCCNc1c(C(=O)OC)c(=O)[nH]c2c(Cl)cccc12` it is 724 s.
To `CNC(=O)c1cc2c(s1)N(CC1CC1)CCCC2` belongs 889 s.
On to `O=C(Cc1nnc2cc(-c3nc(C4CC4)no3)ccn12)NC1CC1`, for which the RP-LC retention time came out at 646 s.
The figure for `COc1cc(NC(=O)N2CCN(c3ccc(=O)n(-c4ccc(F)cc4)n3)CC2)cc(OC)c1OC` is 723 s.
To `Cc1c(-c2noc(C3CCCCC3)n2)nnn1-c1ccccc1` belongs 1160 s; to `Cc1ccc(C(=O)NCc2nc(-c3ccc4c(c3)nnn4C3CCCC3)no2)cc1`, 969 s.
The figure for `CCOC(=O)c1c(S(=O)(=O)NCC(=O)N2CCN(c3ccccn3)CC2)c(C)n(C)c1C` is 618 s; for `CCCc1noc(-c2ccc3nnc(CC(=O)Nc4ccc(F)c(C)c4)n3c2)n1` it is 921 s.
Turning to `O=C(Nc1nnc(SCC(=O)N2CCc3ccccc32)s1)NC1CCCCC1`, the RP-LC retention time is 839 s.
To `CNC(=O)[C@@H]1CN(C(=O)Cn2nc(C(F)(F)F)cc2C)C[C@H]1c1n[nH]c(C)n1` belongs 618 s; to `O=C(CSc1ccc(N2CCN(c3ccccc3)CC2)nn1)NCc1ccco1`, 735 s; to `O=C(Cn1nc2c(cc1=O)CCCC2)Nc1ccc(N2CCCS2(=O)=O)cc1`, 668 s.
Regarding `COc1ccc(NC(=O)Cn2nc3c(Oc4ccccc4C)nccn3c2=O)cc1`, the RP-LC retention time came to 790 s.
The figure for `O=C(c1cccs1)N1CCc2cc(-c3csc(C4CC4)n3)ccc21` is 1150 s.
Regarding `Cc1nc2cc(-c3noc(Cc4ccc(F)cc4)n3)ccc2o1`, the RP-LC retention time stood at 983 s.
As for `Cc1cccc2c(=O)n(C3CCN(S(=O)(=O)c4cccc(Cl)c4)CC3)cnc12`, the RP-LC retention time was determined as 1020 s.
Molecule `CCc1nnc2ccc(NC(=O)Nc3ccccc3C)cn12` came in with an RP-LC retention time of 691 s.
The figure for `COCCC1(NS(C)(=O)=O)CCN(C(=O)NC(C)C)CC1` is 588 s.
To `Cc1ccc(NC(=O)Cn2c(=O)c3cc(-c4cccs4)nn3c3ncccc32)cc1F` belongs 924 s; to `Cc1ccccc1N1CCN(S(=O)(=O)c2cc(-c3nnc(C4CC4)o3)co2)CC1`, 1090 s.
The figure for `CCOC(=O)c1nc(NCCc2ccccc2Cl)c2c(C)noc2n1` is 904 s; for `COc1ccc(-c2nc3cc(C)ccc3o2)cc1NC(=O)NCc1ccco1` it is 1010 s; for `CCc1nc2c(NC(=O)c3ccc(C)c(F)c3)cccn2n1` it is 850 s.
Molecule `CC(C)(C)C(O)CCNC(=O)NCc1ccc(Cl)cc1` (stereo not given) had an RP-LC retention time of 739 s.
As to `CCCNc1cc(N2CCCC(CCC(=O)Nc3ccc(OC)c(OC)c3)C2)ncn1` (stereo not given), the RP-LC retention time came out at 667 s.
To `O=C(NCC1CC1)C1CCCN(c2nccn3nc(-c4ccccc4Cl)cc23)C1` (stereo not given) belongs 816 s.
The figure for `CCOc1cc(C(=O)Nc2nc(-c3ccc4c(c3)NC(=O)CO4)cs2)cc(OCC)c1OCC` is 1030 s.
With `COc1cccc(-n2c(N3CCCC(C(=O)NCCc4cccs4)C3)nc3ccsc3c2=O)c1` (stereo not given), the RP-LC retention time was determined as 879 s.
To `COc1ccc2[nH]cc(CCNC(=O)CCC3CCCCC3)c2c1` belongs 874 s.
`O=C(NCCCn1nc(-c2cccnc2)ccc1=O)c1ccc(F)cc1F` yielded an RP-LC retention time of 569 s.
The figure for `O=C(c1cc(F)ccc1Cl)N1CCc2nc(-c3ccc(Cl)cc3)ncc2C1` is 1130 s.
`O=C(Cn1cc(-c2ccccc2)c2ncnc(N3CCOCC3)c21)N1CCN(c2ccccc2)CC1` returned an RP-LC retention time of 717 s.
To `O=C(NCc1nc(-c2ccc(N3CCCCC3)cc2)no1)c1cccs1` belongs 877 s.
Turning to `CCNC(=O)c1cc(N(C)C)nc2ccccc12`, the RP-LC retention time was 567 s.
To `Cc1ccc(S(=O)(=O)Nc2cccc(-c3cn4cccc(C)c4n3)c2)cc1` belongs 674 s.
To `CC(C)NC(=O)C1CCN(c2nc3ccc(-c4cccnc4)nc3s2)CC1` belongs 605 s; to `CCN1C(=O)C(C)(C(=O)NCc2cccc(OC)c2)Oc2cccnc21` (stereo not given), 829 s.
To `COc1ccc(NC(=O)C2CCCN(S(=O)(=O)c3cc(-c4noc(C)n4)cs3)C2)cc1` (stereo not given) belongs 914 s; to `COCCNS(=O)(=O)c1ccc(-c2c(C)noc2C)cc1`, 764 s; to `CC(C)(C)C(=O)Nc1nnc(-c2cccs2)o1`, 652 s.
In turn, `CCOc1ccc(CCNc2nc(-c3ccc(OC)cc3)no2)cc1OCC` showed an RP-LC retention time of 1020 s.
`COc1ccc(NC(=O)N2C[C@@H](F)C[C@H]2C(=O)N2CCc3ccccc3C2)cc1` gave an RP-LC retention time of 763 s.
To `CCn1cc(CCNC(=O)c2ccc(Br)cc2)c2cccnc21` belongs 766 s; to `CCS(=O)(=O)N1CCCN(C(=O)NC)CC1`, 566 s.
`O=C(c1ccsc1)N1CCCC1(CO)Cc1ccccc1` (stereo not given) had an RP-LC retention time of 819 s.
`O=C(C1CC(=O)N(C2CCCCC2)C1)N1CCC2(CC1)NCCc1c2[nH]c2ccccc12` (stereo not given) showed an RP-LC retention time of 654 s.
The molecule `COc1ccc(N2CC(c3nnc(NC(=O)c4ccccc4Br)o3)CC2=O)cc1` (stereo not given) had an RP-LC retention time of 703 s.
`COC1CCOC2(CCN(C(=O)c3cccs3)CC2)C1` (stereo not given) came in with an RP-LC retention time of 703 s.
To `Cc1ccc(-c2nc3nc(C)cc(N(CCO)CCO)n3n2)cc1` belongs 614 s; to `CC(C)C(=O)Nc1ccc(N2CCN(CC(=O)N3CCCC3)CC2)cc1C(=O)O`, 587 s; to `O=C(CN1C(=O)COc2ccc(C(=O)N3CCCC3)cc21)NCCc1ccc(Cl)cc1`, 765 s.
`Cc1cc(C(F)(F)F)nn1CC(=O)NCC1Cn2cccc2CN1C` (stereo not given) registered an RP-LC retention time of 726 s.
In the case of `COc1cccc(-c2cn3ccn(-c4ccc(F)c(F)c4)c(=O)c3n2)c1`, the RP-LC retention time came to 844 s.
As to `O=C(NCCn1c(=O)n(Cc2ccc(F)cc2)c2cccnc21)c1ccsc1`, the RP-LC retention time was found to be 762 s.

Source of the values: the METLIN SMRT retention time set (Domingo-Almenara et al. 2019).
